Data published in patent US20250270172A1, “Pyrimidine Derivatives As Modulators of the 5-HT2A Serotonin Receptor Useful For The Treatment of Disorders Related Thereto” (Arena Pharmaceuticals, Inc., priority 2020, published 2025).

target: 5-HT2A (Homo sapiens (Human), UniProt P28223); assay: Radioligand binding assay, [^3H]5-HT competition, 5-HT2A; details: [^3H]5-HT radioligand, membranes of HEK293 cells expressing recombinant 5-HT2A; Ki from IC50 by Cheng-Prusoff; read-out: 5-HT2A serotonin binding Ki value
Sequence (P28223 whole entry): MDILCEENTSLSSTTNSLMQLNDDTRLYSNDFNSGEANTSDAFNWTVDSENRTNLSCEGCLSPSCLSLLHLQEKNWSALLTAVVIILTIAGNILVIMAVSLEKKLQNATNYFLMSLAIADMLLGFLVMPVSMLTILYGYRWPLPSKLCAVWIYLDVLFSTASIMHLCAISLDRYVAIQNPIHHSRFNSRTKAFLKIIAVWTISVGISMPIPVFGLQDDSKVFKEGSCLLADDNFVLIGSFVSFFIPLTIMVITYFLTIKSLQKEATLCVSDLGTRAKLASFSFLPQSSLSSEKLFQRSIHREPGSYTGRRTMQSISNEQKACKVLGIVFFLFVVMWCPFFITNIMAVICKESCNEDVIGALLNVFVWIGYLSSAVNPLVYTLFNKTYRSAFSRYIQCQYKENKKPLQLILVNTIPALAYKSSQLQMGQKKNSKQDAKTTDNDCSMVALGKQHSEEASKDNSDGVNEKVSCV

SMILES | Ki [µM]
Cc1ncnc(C)c1-c1cc(NC(=O)c2ncoc2C)ccc1OC[C@H]1CCCCN1 [Compound 432, (R)—N-(3-(4,6-dimethylpyrimidin-5-yl)-4-(piperidin-2-ylmethoxy)phenyl)-5-methyloxazole-4-carboxamide] | 0.0191
CCCN(CCOC)CCOc1ccc(NC(=O)C2CC2)cc1-c1c(C)ncnc1C [Compound 356, N-(3-(4,6-dimethylpyrimidin-5-yl)-4-(2-((2-methoxyethyl)(propyl)amino)ethoxy)phenyl)cyclopropanecarboxamide] | 0.533
Cc1cnn(C)c1C(=O)Nc1ccc(OCCN2CCC2)c(-c2c(C)ncnc2C)c1 [Compound 327, N-(4-(2-(azetidin-1-yl)ethoxy)-3-(4,6-dimethylpyrimidin-5-yl)phenyl)-1,4-dimethyl-1H-pyrazole-5-carboxamide] | 0.0159
Cc1ncnc(C)c1-c1cc(NC(=O)c2ncncc2F)ccc1OCCN1CCC1 [Compound 333, N-(4-(2-(azetidin-1-yl)ethoxy)-3-(4,6-dimethylpyrimidin-5-yl)phenyl)-5-fluoropyrimidine-4-carboxamide] | 0.224
Cc1ncnc(C)c1-c1cc(NC(=O)c2ccc(F)cn2)ccc1OCCN1CCCC1 [Compound 210, N-(3-(4,6-dimethylpyrimidin-5-yl)-4-(2-(pyrrolidin-1-yl)ethoxy)phenyl)-5-fluoropicolinamide] | 0.134
CCN(CC)CCOc1ccc(NC(=O)C2CC2)cc1-c1c(C)ncnc1C [Compound 370, N-(4-(2-(diethylamino)ethoxy)-3-(4,6-dimethylpyrimidin-5-yl)phenyl)cyclopropanecarboxamide] | 0.0786
COCCN(C)CCOc1ccc(NC(=O)C2CC2)cc1-c1c(C)ncnc1C [Compound 354, N-[3-(4,6-dimethylpyrimidin-5-yl)-4-[2-[2-methoxyethyl(methyl)amino]ethoxy]phenyl]cyclopropanecarboxamide] | 0.0321
Cc1ncsc1C(=O)Nc1ccc(O[C@@H]2CCCNC2)c(-c2c(C)ncnc2C)c1 [Compound 412, (R)—N-(3-(4,6-dimethylpyrimidin-5-yl)-4-(piperidin-3-yloxy)phenyl)-4-methylthiazole-5-carboxamide] | 0.02
Cc1ncnc(C)c1-c1cc(N(C)C(=O)c2ccnn2C)ccc1OCCN1CCCC1 [Compound 280, N-[3-(4,6-dimethylpyrimidin-5-yl)-4-(2-pyrrolidin-1-ylethoxy)phenyl]-N,2-dimethyl-pyrazole-3-carboxamide] | 65.8
Cc1ncnc(C)c1-c1cc(NC(=O)C2CC2)ccc1OCCN(C)C1CCC1 [Compound 369, N-(4-(2-(cyclobutyl(methyl)amino)ethoxy)-3-(4,6-dimethylpyrimidin-5-yl)phenyl)cyclopropanecarboxamide] | 0.0518
COc1cccc(CC(=O)Nc2ccc(OCCN3CCC3)c(-c3c(C)ncnc3C)c2)c1 [Compound 311, N-(4-(2-(azetidin-1-yl)ethoxy)-3-(4,6-dimethylpyrimidin-5-yl)phenyl)-2-(3-methoxyphenyl)acetamide] | 0.00301
Cc1ncnc(C)c1-c1cc(NC(=O)c2cnoc2)ccc1OC[C@H]1CCCCN1 [Compound 429, (R)—N-(3-(4,6-dimethylpyrimidin-5-yl)-4-(piperidin-2-ylmethoxy)phenyl)isoxazole-4-carboxamide] | 0.131
Cc1ncnc(C)c1-c1cc(NC(=O)c2cnsc2)ccc1OC[C@H]1CCCCN1 [Compound 433, (R)—N-(3-(4,6-dimethylpyrimidin-5-yl)-4-(piperidin-2-ylmethoxy)phenyl) isothiazole-4-carboxamide] | 0.00998
Cc1ncnc(C)c1-c1cc(NC(=O)C(C)c2ccccc2)ccc1OCCN1CCCC1 (stereo not drawn) [Compound 252, N-(3-(4,6-dimethylpyrimidin-5-yl)-4-(2-(pyrrolidin-1-yl)ethoxy)phenyl)-2-phenylpropanamide] | 0.00953
Cc1ncnc(C)c1-c1cc(NC(=O)[C@H](F)C(C)C)ccc1OC[C@H]1CCCCN1 [Compound 442, (R)—N-(3-(4,6-dimethylpyrimidin-5-yl)-4-(((R)-piperidin-2-yl)methoxy)phenyl)-2-fluoro-3-methylbutanamide] | 0.0171
Cc1ncnc(C)c1-c1cc(NC(=O)C2CC2)ccc1OC[C@H]1CCCCN1 [Compound 421] | 0.00941
Cc1ncnc(C)c1-c1cc(NC(=O)c2ccnn2C)ccc1OCCN1C[C@@H]2C[C@H]1CO2 [Compound 383, N-(4-(2-((1S,4S)-2-oxa-5-azabicyclo[2.2.1]heptan-5-yl)ethoxy)-3-(4,6-dimethylpyrimidin-5-yl)phenyl)-1-methyl-1H-pyrazole-5-carboxamide] | 0.00889
Cc1ncnc(C)c1-c1cc(NC(=O)c2ccc(C#N)cc2)ccc1OCCN1CCC1 [Compound 326, N-(4-(2-(azetidin-1-yl)ethoxy)-3-(4,6-dimethylpyrimidin-5-yl)phenyl)-4-cyanobenzamide] | 0.0137

SMILES | Ki [µM]
COCCN(C)CCOc1ccc(NC(=O)c2c(F)cnn2C)cc1-c1c(C)ncnc1C [Compound 380, N-(3-(4,6-dimethylpyrimidin-5-yl)-4-(2-((2-methoxyethyl)(methyl)amino)ethoxy)phenyl)-4-fluoro-1-methyl-1H-pyrazole-5-carboxamide] | 0.00947
Cc1ncnc(C)c1-c1cc(NC(=O)C2CCOC2)ccc1OCCN1CCCC1 (stereo not drawn) [Compound 231, N-(3-(4,6-dimethylpyrimidin-5-yl)-4-(2-(pyrrolidin-1-yl)ethoxy)phenyl)tetrahydrofuran-3-carboxamide] | 0.0457
Cc1ncnc(C)c1-c1cc(NC(=O)C2(O)CC2)ccc1OCCN1CCCC1 [Compound 283, N-[3-(4,6-dimethylpyrimidin-5-yl)-4-(2-pyrrolidin-1-ylethoxy)phenyl]-1-hydroxy-cyclopropanecarboxamide] | 0.024
Cc1ncnc(C)c1-c1cc(NC(=O)C2CC2)ccc1OCCN1CC(O)C1 [Compound 388, N-[3-(4,6-dimethylpyrimidin-5-yl)-4-[2-(3-hydroxyazetidin-1-yl)ethoxy]phenyl]cyclopropanecarboxamide] | 0.0137
Cc1cnoc1C(=O)Nc1ccc(OC[C@H]2CCCCN2)c(-c2c(C)ncnc2C)c1 [Compound 427, (R)—N-(3-(4,6-dimethylpyrimidin-5-yl)-4-(piperidin-2-ylmethoxy)phenyl)-4-methylisoxazole-5-carboxamide] | 0.0272
Cc1nc(C)c(C(=O)Nc2ccc(OCCN3CCCC3)c(-c3c(C)ncnc3C)c2)s1 [Compound 215, N-(3-(4,6-dimethylpyrimidin-5-yl)-4-(2-(pyrrolidin-1-yl)ethoxy)phenyl)-2,4-dimethylthiazole-5-carboxamide] | 0.0157
Cc1ncnc(C)c1-c1cc(NC(=O)[C@H]2C[C@H]2F)ccc1OC[C@H]1CCCCN1 [Compound 423, (1R,2R)—N-(3-(4,6-dimethylpyrimidin-5-yl)-4-(((R)-piperidin-2-yl)methoxy)phenyl)-2-fluorocyclopropane-1-carboxamide] | 0.0162
Cc1ncnc(C)c1-c1cc(NC(=O)c2cccn2C)ccc1O[C@@H]1CCCNC1 [Compound 416, (R)—N-(3-(4,6-dimethylpyrimidin-5-yl)-4-(piperidin-3-yloxy)phenyl)-1-methyl-1H-pyrrole-2-carboxamide] | 0.0453
Cc1ncnc(C)c1-c1cc(NC(=O)C2CC2)ccc1OCCN1CCN(C=O)CC1 [Compound 341, N-[3-(4,6-dimethylpyrimidin-5-yl)-4-[2-(4-formylpiperazin-1-yl)ethoxy]phenyl]cyclopropanecarboxamide] | 0.00984
CC(=O)N1CCN(CCOc2ccc(NC(=O)C3CC3)cc2-c2c(C)ncnc2C)CC1 [Compound 334, N-[4-[2-(4-acetylpiperazin-1-yl)ethoxy]-3-(4,6-dimethylpyrimidin-5-yl)phenyl]cyclopropanecarboxamide] | 0.0176
Cc1ncnc(C)c1-c1cc(NC(=O)C2CC2)ccc1OCCN1CCN(C(=O)CO)CC1 [Compound 339, N-[3-(4,6-dimethylpyrimidin-5-yl)-4-[2-[4-(2-hydroxyacetyl)piperazin-1-yl]ethoxy]phenyl]cyclopropanecarboxamide] | 0.0184
Cc1ncnc(C)c1-c1cc(NC(=O)[C@@H]2C[C@H]2F)ccc1OC[C@H]1CCCCN1 [Compound 422, (1S,2R)—N-[3-(4,6-dimethylpyrimidin-5-yl)-4-[[(2R)-2-piperidyl]methoxy]phenyl]-2-fluoro-cyclopropanecarboxamide] | 0.00458
COCCN(C)CCOc1ccc(NC(=O)c2cccc(OC)c2)cc1-c1c(C)ncnc1C [Compound 377, N-(3-(4,6-dimethylpyrimidin-5-yl)-4-(2-((2-methoxyethyl)(methyl)amino)ethoxy)phenyl)-3-methoxybenzamide] | 0.00264
Cc1ncnc(C)c1-c1cc(NC(=O)Cc2ccnn2C)ccc1OCCN1CCCC1 [Compound 227, N-(3-(4,6-dimethylpyrimidin-5-yl)-4-(2-(pyrrolidin-1-yl)ethoxy)phenyl)-2-(1-methyl-1H-pyrazol-5-yl)acetamide] | 0.0831
Cc1nc(CCC(=O)Nc2ccc(OCCN3CCCC3)c(-c3c(C)ncnc3C)c2)co1 [Compound 259, N-[3-(4,6-dimethylpyrimidin-5-yl)-4-(2-pyrrolidin-1-ylethoxy)phenyl]-3-(2-methyloxazol-4-yl)propanamide] | 0.0196
Cc1ncnc(C)c1-c1cc(NC(=O)c2ccccc2)ccc1OCCN1CC(F)C1 [Compound 387, N-[3-(4,6-dimethylpyrimidin-5-yl)-4-[2-(3-fluoroazetidin-1-yl)ethoxy]phenyl]benzamide] | 0.0133
Cc1ncnc(C)c1-c1cc(NC(=O)C2(F)CCOCC2)ccc1OC[C@H]1CCCCN1 [Compound 445, (R)—N-(3-(4,6-dimethylpyrimidin-5-yl)-4-(piperidin-2-ylmethoxy)phenyl)-4-fluorotetrahydro-2H-pyran-4-carboxamide] | 0.0633
Cc1ncnc(C)c1-c1cc(NC(=O)CN2CCn3nccc3C2)ccc1OCCN1CCCC1 [Compound 239, 2-(6,7-dihydropyrazolo[1,5-a]pyrazin-5 (4H)-yl)-N-(3-(4,6-dimethylpyrimidin-5-yl)-4-(2-(pyrrolidin-1-yl)ethoxy)phenyl)acetamide] | 0.0923
